In patent publication US10471060B2, “Amino pyrimidine compounds useful as SSAO inhibitors” (Eli Lilly and Company, priority 2017, dated 2019):

Assays:
[1] = tested on: SSAO; test: SSAO Target Engagement: residual SSAO activity in rat plasma and liver after dosing; format: in vivo; details: for SSAO Activity (%) Liver 24 hours / SSAO Activity (%) Plasma 2 hours / SSAO Activity (%) Plasma 24 hours: mean ± SEM, n = 6
Description: The SSAO activity in rat plasma and liver tissues are measured using the MAO-Glo™ assay kit from Promega (V1402). The residual SSAO activity in rats after compound treatment is estimated by measuring the total amine oxidase activity in plasma or liver lysates that are insensitive to the presence of the MAO inhibitor Clogyline and Pargyline. Rats are administered the compound of Example 1 at the doses of 15, 3, 0.6, 0.12, 0.025, 0.005 mg/kg. The control group is administered with the same volume (2 ml/kg) of the dosing vehicle (hydroxyethyl cellulose 1% w/v, 0.25% Tween 80). Plasma and liver at 2 or 24 hrs post compound treatment are harvested and stored at −78° C. until analysis. Tissue lysates are prepared by homogenization in a lysis buffer (20 mM HEPES, pH 7.4, 150 mM NaCl, 1 mM EDTA, 1 mM EGTA, 1% Triton X-100 and 1× Roche Complete protease inhibitor tablet). Tissue particles are removed by centrifugation at 12,000 rpm at 4° C. for 30 min. 40 μl of plasma or liver lysates is incubated with Clogyline (10 μM) and Pargyline (10 μM) for 20 min. at room temperature before the addition of the luminogenic substrate (50 μM) for 60 min. The product generated is quantified according to the manufacture's procedure. The fraction of activity that is insensitive to the presence of the MAO inhibitors is used as the surrogate for the residual SSAO activity. The compound of Example 1 is evaluated in the protocol essentially as described above administered at various doses.

[2] = biological target: T1, recombinant hSSAO (Homo sapiens, UniProt Q16853); test: SSAO/VAP-1 in vitro amine oxidase activity, MAO-Glo assay; format: biochemical; details: mean±standard deviation, n=5; substrate 10 μM, pH 7.4; read-out: hSSAO inhibition IC50
T1 sequence (Q16853 1-763): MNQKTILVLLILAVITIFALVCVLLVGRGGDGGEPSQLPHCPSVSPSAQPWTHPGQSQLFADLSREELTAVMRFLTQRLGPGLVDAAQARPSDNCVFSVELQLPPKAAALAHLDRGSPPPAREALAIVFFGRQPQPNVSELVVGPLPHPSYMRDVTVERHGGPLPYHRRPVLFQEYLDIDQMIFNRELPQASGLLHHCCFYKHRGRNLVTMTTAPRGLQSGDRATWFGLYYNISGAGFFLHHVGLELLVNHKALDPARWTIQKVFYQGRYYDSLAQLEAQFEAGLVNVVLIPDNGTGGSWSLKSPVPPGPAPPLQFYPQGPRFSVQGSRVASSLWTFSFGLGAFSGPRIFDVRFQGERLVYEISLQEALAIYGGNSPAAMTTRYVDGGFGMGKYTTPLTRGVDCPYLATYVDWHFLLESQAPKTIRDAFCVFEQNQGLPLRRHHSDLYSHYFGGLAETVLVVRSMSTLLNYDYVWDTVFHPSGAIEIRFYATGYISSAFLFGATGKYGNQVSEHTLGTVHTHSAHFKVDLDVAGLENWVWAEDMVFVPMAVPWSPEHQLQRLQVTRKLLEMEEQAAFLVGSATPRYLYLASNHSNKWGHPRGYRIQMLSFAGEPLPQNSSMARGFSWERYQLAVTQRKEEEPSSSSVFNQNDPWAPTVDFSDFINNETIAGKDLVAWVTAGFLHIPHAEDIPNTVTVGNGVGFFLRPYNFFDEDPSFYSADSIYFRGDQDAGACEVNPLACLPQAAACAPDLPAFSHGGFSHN
Description: Amine oxidase activity of recombinant hSSAO, hMAOa, and hMAOb isoforms are measured using the MAO-Glo™ assay kit from Promega (V1402). Test compounds (with DMSO as vehicle, 0.5% v/v for SSAO) and the enzyme are incubated for 10 mins at room temperature before the addition of the luminogenic substrate. The substrate concentration is 10 μM for human recombinant SSAO. The assays are conducted in a pH 7.4 buffer (50 mM HEPES, 120 mM NaCl, 5 mM KCl, 2 mM CaCl2, 1.4 mM MgCl2, 0.001% Tween-20) in a well-plate. Oxidation of the substrate is conducted for 2 hrs before the addition of detecting reagent according the manufacture's protocol. The IC50 value of the tested compounds is calculated by fitting the dose response curve using a 4-parameter non-linear regression routine.

## CN1CCC2(CCN(c3ncc(OC/C(=C/F)CN)cn3)CC2)C1=O.Cl.Cl [Example 1, 8-[5-[(E)-2-(Aminomethyl)-3-fluoro-allyloxy]pyrimidin-2-yl]-2-methyl-2,8-diazaspiro[4.5]decan-1-one Dihydrochloride]
[1]; dose 0.005 mg/kg
  SSAO Activity (%) Liver 24 hours: 79 ± 13%
  SSAO Activity (%) Plasma 2 hours: 76 ± 3%
  SSAO Activity (%) Plasma 24 hours: 81 ± 4%
[1]; dose 0.025 mg/kg
  SSAO Activity (%) Liver 24 hours: 59 ± 14%
  SSAO Activity (%) Plasma 2 hours: 35 ± 4%
  SSAO Activity (%) Plasma 24 hours: 67 ± 10%
[1]; dose 0.12 mg/kg
  SSAO Activity (%) Liver 24 hours: 28 ± 5%
  SSAO Activity (%) Plasma 2 hours: 17 ± 1%
  SSAO Activity (%) Plasma 24 hours: 39 ± 4%
[1]; dose 0.6 mg/kg
  SSAO Activity (%) Liver 24 hours: 24 ± 6%
  SSAO Activity (%) Plasma 2 hours: 13.4 ± 2.4%
  SSAO Activity (%) Plasma 24 hours: 31 ± 3%
[1]; dose 3 mg/kg
  SSAO Activity (%) Liver 24 hours: 6 ± 4%
  SSAO Activity (%) Plasma 2 hours: 5.9 ± 1.6%
  SSAO Activity (%) Plasma 24 hours: 19 ± 2%
[1]; dose 15 mg/kg
  SSAO Activity (%) Liver 24 hours: −0.63 ± 1.1%
  SSAO Activity (%) Plasma 2 hours: 3.1 ± 0.9%
  SSAO Activity (%) Plasma 24 hours: 14 ± 1%
[1]; doses 0.005 to 15 mg/kg
  inhibition of SSAO activity in rat plasma and liver tissue (in words): dose-dependently inhibits SSAO activity
[2]
  IC50: 19.4 ± 5.68 nM
